# Data reported in US9920061B2, “Imidazo[1,5-A]pyrimidinyl carboxamide compounds and their use in the treatment of medical disorders” (Lysosomal Therapeutics Inc., priority 2016, dated 2018).
# Where two headings read alike, the source gives them in different places.
# Columns and labels:
# [1] = Compound solubility in water; type: physicochemical
# [2] = target: T1, glucocerebrosidase (Gcase) (Homo sapiens, UniProt P04062); test: Glucocerebrosidase (Gcase) activation assay, 4-methylumbelliferyl-beta-D-glucopyranoside substrate, with saposin C; type: biochemical
# T1 sequence (P04062 40-536): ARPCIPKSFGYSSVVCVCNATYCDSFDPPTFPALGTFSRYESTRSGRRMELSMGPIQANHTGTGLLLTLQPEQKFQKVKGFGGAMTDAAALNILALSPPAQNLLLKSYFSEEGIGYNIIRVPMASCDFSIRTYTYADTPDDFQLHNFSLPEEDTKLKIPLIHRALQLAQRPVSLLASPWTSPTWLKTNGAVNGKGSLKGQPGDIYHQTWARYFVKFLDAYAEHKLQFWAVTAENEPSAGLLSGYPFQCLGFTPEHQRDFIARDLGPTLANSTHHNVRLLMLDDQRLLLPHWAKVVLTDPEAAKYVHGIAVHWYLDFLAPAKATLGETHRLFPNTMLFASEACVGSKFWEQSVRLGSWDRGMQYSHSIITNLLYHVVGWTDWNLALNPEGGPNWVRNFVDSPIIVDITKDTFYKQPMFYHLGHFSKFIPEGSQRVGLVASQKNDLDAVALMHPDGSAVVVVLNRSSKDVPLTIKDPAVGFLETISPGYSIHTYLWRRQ
# Procedure, shortened: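 Micellar buffer (176 mM K2HPO4/50 mM citric acid, pH 4.7; 0.32 mM triton, 0.37 mol % PS) holding 10 nM GCase and 100 nM saposin C, pre-incubated with compound 30 min at room temperature. Substrate final 2 mM before mixing; 15 min reaction, glycine pH 12.5 stop, fluorescence 365/440 nm. Screened at 1.0 and 0.1 μM; 8-point, 3-fold dose response.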
# [3] = test compound at 0.1 μM, read-out: Percent Gcase Activation, 0.1 μM Test Compound
# [4] = test compound at 1.0 μM, read-out: Percent Gcase Activation, 1 μM Test Compound
# [5] = 0.1 μM test compound, read-out: Percent Gcase Activation 0.1 μM Test Compound
# [6] = 1 μM test compound, read-out: Percent Gcase Activation 1 μM Test Compound
SMILES,solubility ([1]; in water) [µg/mL],"activation at 0.1 µM [2, 3] [%]","activation at 1 µM [2, 4] [%]",solubility [1] [µg/mL],"activation at 0.1 µM [2, 5] [%]","activation at 1 µM [2, 6] [%]"
Cc1cc(C(=O)Nc2ccccc2)nc2c(C(=O)NC(C3CC3)C(F)(F)F)ncn12 (stereo not drawn) [IV-100],6.2,< 10,< 30,–,–,–
Cc1cc(-c2ccc(F)cc2)nc2c(C(=O)NC(C3CC3)C(F)(F)F)ncn12 (stereo not drawn) [IV-44],0.8,> 20,> 60,–,–,–
Cc1cc(-c2cccc(Cl)c2)nc2c(C(=O)NC(C)(C)C)ncn12 [III-134],–,–,–,2.4,> 20,> 60
Cc1cc(-c2sccc2C#N)nc2c(C(=O)NC(C3CC3)C(F)(F)F)ncn12 (stereo not drawn) [IV-37],2.4,> 20,> 60,–,–,–
Cc1cc(Oc2ccccn2)nc2c(C(=O)N[C@@H](C)C3CC3)ncn12 [III-121],–,–,–,34.9,< 10,< 30
COc1c(C#N)cccc1-c1cc(C)n2cnc(C(=O)NC(C)C(F)(F)F)c2n1 (stereo not drawn) [IV-66],23.9,< 10,< 30,–,–,–
Cc1cc(-c2ccon2)nc2c(C(=O)NC(C3CC3)C(F)(F)F)ncn12 (stereo not drawn) [IV-9],3.9,< 10,30 to 60,–,–,–
Cc1cc(-c2ccc(F)cc2)nc2c(C(=O)NC(C)(C)C)ncn12 [III-88],–,–,–,2,< 10,> 60
COc1cc(F)cc(-c2cc(C)n3cnc(C(=O)NC(C)C(F)(F)F)c3n2)c1 (stereo not drawn) [IV-57],1.2,> 20,> 60,–,–,–
C#CC(C)(C)NC(=O)c1ncn2c(C)cc(-c3cccc(Cl)c3)nc12 [III-135],–,–,–,0.3,> 20,> 60
Cc1cc(-c2ccc(F)cc2)nc2c(C(=O)NC(C)C3CCCO3)ncn12 (stereo not drawn) [III-80],–,–,–,14.5,< 10,< 30
C#CC(C)(C)NC(=O)c1ncn2c(C)cc(-c3cccc4c3OCO4)nc12 [IV-27],1.1,< 10,< 30,–,–,–
Cc1cc(-c2nccs2)nc2c(C(=O)NC(C3CC3)C(F)(F)F)ncn12 (stereo not drawn) [IV-50],1.5,10 to 20,> 60,–,–,–
Cc1cc(-n2cncn2)nc2c(C(=O)NC(C)(C)C3CC3)ncn12 [III-68],–,–,–,27.3,< 10,< 30
Cc1cc(-c2cccc3ncnn23)nc2c(C(=O)NC(C3CC3)C(F)(F)F)ncn12 (stereo not drawn) [IV-41],3.5,< 10,30 to 60,–,–,–
Cc1cc(-c2ccccc2C#N)nc2c(C(=O)NC(C3CC3)C(F)(F)F)ncn12 (stereo not drawn) [III-153],–,–,–,0.5,> 20,> 60
C#CC(C)(C)NC(=O)c1ncn2c(C)cc(-c3cc(F)cc(F)c3)nc12 [III-188],–,–,–,0.3,10 to 20,> 60
CCc1cc(N2CCC(C)(C)C2=O)nc2c(C(=O)NC(C3CC3)C(F)(F)F)ncn12 (stereo not drawn) [IV-107],29.6,10 to 20,> 60,–,–,–
CO[C@H]1CC[C@@H](C(C)(C)NC(=O)c2ncn3c(C)cc(-c4cccnc4)nc23)CC1 [III-74],–,–,–,19.3,< 10,30 to 60
Cc1cc(-c2cccc3c2OCO3)nc2c(C(=O)N[C@H](C)C3CC3)ncn12 [IV-31],1.4,10 to 20,> 60,–,–,–
Cc1cc(-c2occc2C#N)nc2c(C(=O)NC(C3CC3)C(F)(F)F)ncn12 (stereo not drawn) [IV-82],1.9,> 20,> 60,–,–,–

SMILES,solubility ([1]; in water) [µg/mL],"activation at 0.1 µM [2, 3] [%]","activation at 1 µM [2, 4] [%]",solubility [1] [µg/mL],"activation at 0.1 µM [2, 5] [%]","activation at 1 µM [2, 6] [%]"
Cc1cc(N2CCCC(F)(F)C2)nc2c(C(=O)NC(C3CC3)C(F)(F)F)ncn12 (stereo not drawn) [IV-113],17.2,> 20,> 60,–,–,–
Cc1cc(-c2ccn3ccnc3c2)nc2c(C(=O)N[C@@H](C)C3CC3)ncn12 [III-131],–,–,–,2.8,< 10,< 30
COc1cccc(-c2cc(C)n3cnc(C(=O)N[C@@H](C4CC4)C(F)(F)F)c3n2)n1 [IV-14],3.2,> 20,> 60,–,–,–
Cc1cc(-c2cccc(-c3ncncn3)c2)nc2c(C(=O)NC(C3CC3)C(F)(F)F)ncn12 (stereo not drawn) [IV-79],0.5,> 20,> 60,–,–,–
C#Cc1cccc([C@@H](NC(=O)c2ncn3c(C)cc(C)nc23)C(F)(F)F)c1 [III-4],–,–,–,6.1,> 20,> 60
COCc1cc(C)n2cnc(C(=O)NC(c3ccc(F)cc3)C(F)(F)F)c2n1 (stereo not drawn) [III-22],–,–,–,24.7,< 10,> 60
Cc1cc(-c2ccc(F)c(F)c2)nc2c(C(=O)NC(C)C3CC3)ncn12 (stereo not drawn) [III-85],–,–,–,1.2,> 20,> 60
Cc1cc(-c2cccn3cnnc23)nc2c(C(=O)NC(C3CC3)C(F)(F)F)ncn12 (stereo not drawn) [IV-42],2.1,< 10,> 60,–,–,–
Cc1cc(-c2ncc[nH]2)nc2c(C(=O)NC(C)(C)C3CC3)ncn12 [III-117],–,–,–,20.5,< 10,< 30
CCCCO[C@H]1C[C@H]2CC[C@@H](C1)[C@H]2NC(=O)c1ncn2c(C)cc(-c3cccnc3)nc12 [III-63],–,–,–,3.5,> 20,> 60
Cc1cc(-c2ccsc2C#N)nc2c(C(=O)NC(C3CC3)C(F)(F)F)ncn12 (stereo not drawn) [IV-88],0.3,> 20,> 60,–,–,–
CCc1cc(-c2cccc(F)c2)nc2c(C(=O)N[C@@H](C)C3CC3)ncn12 [III-113],–,–,–,1.7,> 20,> 60
Cc1cc(N2CCC(F)(F)CC2)nc2c(C(=O)NC(C)(C)C3CC3)ncn12 [III-118],–,–,–,9.7,< 10,30 to 60
Cc1cc(C)n2cnc(C(=O)NC(C)(C)C3CC3)c2n1 [III-8],–,–,–,25.2,< 10,< 30
COc1c(F)cccc1-c1cc(C)n2cnc(C(=O)N[C@@H](C)C3CC3)c2n1 [IV-62],16,< 10,> 60,–,–,–
Cc1cc(-c2ccc(F)cc2C#N)nc2c(C(=O)NC(C3CC3)C(F)(F)F)ncn12 (stereo not drawn) [IV-80],3.7,> 20,> 60,–,–,–
Cc1cc(-c2cscn2)nc2c(C(=O)NC(C)(C)C3CC3)ncn12 [III-62],–,–,–,6.3,< 10,> 60
Cc1cc(-c2cccc(C#N)c2)nc2c(C(=O)NC(C)(C)C3CC3)ncn12 [III-151],–,–,–,4.3,> 20,> 60
Cc1cc(-c2cccc(OC3CC3)n2)nc2c(C(=O)NC(C3CC3)C(F)(F)F)ncn12 (stereo not drawn) [IV-15],2.1,10 to 20,> 60,–,–,–
Cc1cc(-c2ccccc2)nc2c(C(=O)NC(C)C3CC3)ncn12 (stereo not drawn) [III-86],–,–,–,13.1,> 20,> 60
